Among the data in patent publication US20080004263A1, “Ligands of Follicle Stimulating Hormone Receptor and Methods of Use Thereof” (priority 2004, published 2008) are EC50 values, retold here.

As a reminder, the EC50 is the concentration giving half of the maximal effect. Higher therefore signals weaker potency.

In this experiment the target is T1, FSH receptor (Homo sapiens, UniProt P23945).
T1 construct: expressed in transfected cells; host or cells: AV12 cells (stably transfected)
T1 sequence (P23945 18-695): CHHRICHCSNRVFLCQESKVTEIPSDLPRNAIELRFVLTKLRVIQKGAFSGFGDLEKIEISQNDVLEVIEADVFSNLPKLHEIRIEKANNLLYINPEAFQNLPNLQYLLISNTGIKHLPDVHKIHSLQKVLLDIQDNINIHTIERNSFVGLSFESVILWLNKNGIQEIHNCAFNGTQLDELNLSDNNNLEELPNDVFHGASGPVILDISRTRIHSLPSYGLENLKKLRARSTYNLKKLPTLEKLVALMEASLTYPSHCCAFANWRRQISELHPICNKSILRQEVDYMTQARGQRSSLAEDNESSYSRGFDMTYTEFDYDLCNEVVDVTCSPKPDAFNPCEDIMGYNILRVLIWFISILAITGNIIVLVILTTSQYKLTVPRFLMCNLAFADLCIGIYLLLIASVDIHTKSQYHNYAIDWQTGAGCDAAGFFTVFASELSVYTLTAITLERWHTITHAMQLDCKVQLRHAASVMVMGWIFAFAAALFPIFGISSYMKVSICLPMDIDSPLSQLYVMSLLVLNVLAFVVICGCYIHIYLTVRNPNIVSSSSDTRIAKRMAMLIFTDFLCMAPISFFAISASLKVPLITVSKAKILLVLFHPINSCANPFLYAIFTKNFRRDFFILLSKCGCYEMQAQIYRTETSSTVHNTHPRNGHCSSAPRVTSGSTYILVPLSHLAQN
The experiment in a line: cAMP Whole Cell assay (AlphaScreen cAMP detection) in AV12 cells stably transfected with FSH receptor. The format is cell-based. The conditions noted are these: AV12 cells expressing FSH receptor; average of two (2) trials. The procedure:
Compounds of the invention were tested for their ability to activate an FSH receptor protein using an AlphaScreen cAMP detection kit (Perkin Elmer; Cat. No. 6760600R).
AV12 cells stably transfected with an expression vector containing an FSH construct and cultured under conditions permissive for cell surface expression of the encoded FSH receptor were harvested from flasks via non-enzymatic means. The cells were washed in PBS and resuspended in Stimulation Buffer. Live cells were counted using a hemacytometer and Trypan blue exclusion, and the cell concentration was adjusted to 2×10^5 cells/ml. A cAMP standard curve in buffer was prepared with a high final concentration of 1 μM, and serially diluted 1:5 in buffer (10 μL/well). Candidate compounds identified as per above (if frozen, thawed at room temperature) were added to their respective wells (in a 384-well plate) at increasing concentrations (5 μL/well; 10 μM final top assay concentration). To these wells, 2,000 cells in 10 μl of Buffer were added and the mixture as well as 5 μL of cAMP Acceptor Beads in Stimulation Buffer. Following a 30 minute incubation, 5 μL of Donor Bead/Biotinylated cAMP was added to each well, followed by incubation at RT for 2 hours. Plates were read in a Perkin Elmer AlphaQuest™ plate reader per manufacturer instructions.
On the technique in general: Alpha assays give light when donor and acceptor beads are brought close together.

Take `Cc1onc(-c2cccc(-c3ccc(-c4nnn[nH]4)cc3)c2)c1-c1csc(C2CCN(C(=O)Cc3cccs3)CC2)n1` [Example 38, 1-[4-(4-{5-Methyl-3-[4′-(1H-tetrazol-5-yl)-biphenyl-3-yl]-isoxazol-4-yl}-thiazol-2-yl)-piperidin-1-yl]-2-thiophen-2-yl-ethanone]: the EC50 amounted to 1100 nM.
